Patent US10858360B2, “Tricyclic gyrase inhibitors” (priority 2011, dated 2020)
Values after ≈ are worked out from the molar mass of the structure shown. Read-outs that look alike come from different tables or passages of the source.

Assays:
S. aureus ATCC 13709 = test: MIC, S. aureus ATCC 13709 (Alamar Blue broth microdilution); assay type: cell-based; conditions: for MIC: Staphylococcus aureus, ATCC13709, S. aureus
E. coli ATCC 25922 = test: MIC, E. coli ATCC 25922; assay type: cell-based; conditions: for MIC: Escherichia coli, ATCC25922, E. coli
[1] = Alamar Blue read after overnight incubation at 35° C.
[2] = S. aureus, Alamar Blue read after overnight incubation at 35° C.
[3] = E. coli, Alamar Blue read after overnight incubation at 35° C.

| SMILES | MIC (S. aureus ATCC 13709; [1]) | MIC (E. coli ATCC 25922; [1]) | MIC Sa (S. aureus ATCC 13709; [2]) | MIC Ec (E. coli ATCC 25922; [3]) | other results |
| --- | --- | --- | --- | --- | --- |
| CNc1cc(Cl)cc2c1[nH]c1nc(Oc3cncnc3)nc(N3CC4(CC4N)C3)c12 (stereo not shown) [6.12] | – | – | – | – | MIC Sa (S. aureus ATCC 13709): ≤0.5 µg/mL; MIC Ec (E. coli ATCC 25922): ≤0.5 µg/mL |
| CNc1cc(F)cc2c1[nH]c1nc(Oc3cnc(C)nc3)nc(N3C[C@@H]4CCN[C@@H]4C3)c12 [4.156] | ≤ 0.5 µg/mL | ≤ 0.5 µg/mL | – | – | – |
| CNc1cc(F)cc2c1[nH]c1nc(Oc3ccc(C#N)nc3)nc(N3C[C@H](N)C4(CC4)C3)c12 [4.329] | – | – | ≤0.5 µg/mL | ≤0.5 µg/mL | – |
| CNc1cc(F)cc2c1[nH]c1nc(Oc3cnc(NCC4CCCO4)nc3)nc(N3C[C@H](N)C4(CC4)C3)c12 (stereo partly shown) [4.406] | ≤ 0.5 µg/mL | 1 µg/mL (≈ 1.92 µM) | – | – | – |
| CNc1cc(F)cc2c1[nH]c1nc(Oc3ccc4cncnc4c3)nc(N3CC4[C@H](N)C[C@]4(C)C3)c12 (stereo partly shown) [4.366] | ≤ 0.5 µg/mL | 1 µg/mL (≈ 2.06 µM) | – | – | – |
| CNc1cc(F)cc2c1[nH]c1nc(Oc3cnc4cccnc4c3)nc(N3CC[C@@]4(C[C@H]4N)C3)c12 [4.041] | ≤ 0.5 µg/mL | 1 µg/mL (≈ 2.13 µM) | – | – | – |
| CNc1cc(F)cc2c1[nH]c1nc(Oc3cnc4c(c3)ncn4C)nc(N3CC4CC(N)C4C3)c12 (stereo not shown) [4.226] | – | – | ≤0.5 µg/mL | 2 µg/mL (≈ 4.22 µM) | – |
| CNc1cc(F)cc2c1[nH]c1nc(Oc3cnc4c(ccn4C)c3)nc(N3CC4CC(N)C4C3)c12 (stereo not shown) [4.328] | ≤ 0.5 µg/mL | 1 µg/mL (≈ 2.12 µM) | – | – | – |
| CNc1cc(F)cc2c1[nH]c1nc(Oc3cnc(C)nc3)nc(N3CCNCC34CC4)c12 [4.133] | – | – | >16 µg/mL | >16 µg/mL | – |
| CNc1cccc2c1[nH]c1nc(Oc3cncnc3)nc(N3CCC(CN)C3)c12 (stereo not shown) [3.58] | 32 µg/mL (≈ 82 µM) | > 64 µg/mL | – | – | – |
| CNc1cc(F)cc2c1[nH]c1nc(Oc3cncnc3)nc(N3C4CCC3CC(N)C4)c12 (stereo not shown) [4.025] | ≤ 0.5 µg/mL | 2 µg/mL (≈ 4.6 µM) | – | – | – |
| CNc1cc(F)cc2c1[nH]c1nc(Oc3ccc4c(c3)C(=O)NC4)nc(N3CCC4(CC4N)C3)c12 (stereo not shown) [4.266] | – | – | ≤0.5 µg/mL | 1 µg/mL (≈ 2.11 µM) | – |
| CNc1cccc2c1[nH]c1nc(Oc3cncnc3)nc(N3CCN(CCN4CCOCC4)CC3)c12 [3.60] | 8 µg/mL (≈ 16.3 µM) | > 64 µg/mL | – | – | – |
| CNc1cc(F)cc2c1[nH]c1nc(Oc3cncnc3)nc(N3CC4CNC4C3)c12 (stereo not shown) [4.008] | ≤ 0.5 µg/mL | ≤ 0.5 µg/mL | – | – | – |
| CNc1cc(F)c(F)c2c1[nH]c1nc(Oc3cnc(C)nc3)nc(N3CC4(CC[C@H]4N)C3)c12 [5.01] | ≤ 0.5 µg/mL | ≤ 0.5 µg/mL | – | – | – |
| CNc1cccc2c1[nH]c1nc(Oc3cncc(C#N)c3)nc(N3CC[C@@H](N)C3)c12 [3.3] | 0.5 µg/mL (≈ 1.25 µM) | 1 µg/mL (≈ 2.5 µM) | – | – | – |
| CNc1cccc2c1[nH]c1nc(Oc3cncc(OC)c3)nc(N3CC4C(N)C4C3)c12 (stereo not shown) [3.35] | ≤ 0.5 µg/mL | 1 µg/mL (≈ 2.4 µM) | – | – | – |
| CNc1cc(F)cc2c1[nH]c1nc(Oc3cncnc3)nc(N3CC4C(CN)C4C3)c12 (stereo not shown) [4.004] | ≤ 0.5 µg/mL | 2 µg/mL (≈ 4.76 µM) | – | – | – |
| CNc1cc(F)cc2c1[nH]c1nc(Oc3cnc(C)nc3)nc(N3CC(N)C4(CC4)C3)c12 (stereo not shown) [4.068] | – | – | ≤0.5 µg/mL | ≤0.5 µg/mL | – |
| CNc1cc(F)cc2c1[nH]c1nc(Oc3cncnc3)nc(N3CCCC(C)(N)C3)c12 (stereo not shown) [4.024] | ≤ 0.5 µg/mL | 2 µg/mL (≈ 4.73 µM) | – | – | – |
| CNc1cc(F)cc2c1[nH]c1nc(Oc3cncc([S+](C)[O-])c3)nc(N3CC4C(N)C4C3)c12 (stereo not shown) [4.351] | – | – | ≤0.5 µg/mL | 2 µg/mL (≈ 4.28 µM) | – |
| CNc1cc(F)cc2c1[nH]c1nc(Oc3ccc(C4CC4)nc3)nc(N3CC(N)C4(CC4)C3)c12 (stereo not shown) [4.347] | – | – | ≤0.5 µg/mL | 1 µg/mL (≈ 2.18 µM) | – |
| Cc1ncc(Oc2nc(N3C[C@H](NC(=O)CN)C4(CC4)C3)c3c(n2)[nH]c2c(N(C)C(=O)CN)cc(F)cc23)cn1 [4.427] | > 16 µg/mL | > 16 µg/mL | – | – | – |
| CNc1cc(F)cc2c1[nH]c1nc(Oc3cnc4ccoc4c3)nc(N3CC4CCC(N)C4C3)c12 (stereo not shown) [4.293] | – | – | ≤0.5 µg/mL | 1 µg/mL (≈ 2.11 µM) | – |
| CNc1cc(F)cc2c1[nH]c1nc(Oc3cnc(N4CC(C)(N)C4)nc3)nc(N3CCC4(C[C@@H]4N)C3)c12 (stereo partly shown) [4.341] | – | – | ≤0.5 µg/mL | 1 µg/mL (≈ 1.98 µM) | – |
| COc1nccc2c1[nH]c1nc(Sc3cnc4cccnc4c3)nc(N3CC4C(N)C4C3)c12 (stereo not shown) [7.03] | 2 µg/mL (≈ 4.38 µM) | > 64 µg/mL | – | – | – |
